pIC50: −log10 of the molar value.
Columns and labels:
[1] = target: T1, Tankyrase 1 (TNKS1) (Homo sapiens, UniProt O95271); test: μHTS-TNKS-IWR2 TR-FRET Binding Assay (Example 71), TNKS1
T1 construct: His6-TNKS1, MW=28.2 KDa (construct: 1088-1327, 1266M)
Method: (§1) μHTS-TNKS-IWR2 TR-FRET Binding Assay (10 μL/well in BD1536-well plate, a single point)
(§2) Assay buffer 1a (AB1a) for TNKS dilution: 50 mM Tris, pH 7.4, 100 mM sodium chloride solution, 1 mM magnesium chloride solution, 1 mM DL-dithiothreitol solution, 0.2 mg/mL bovine serum albumin solution, 0.025% NP-40. Assay buffer 1b (AB 1b) for Biotin-IWR2 dilution: 50 mM Tris, pH 7.4, 100 mM sodium chloride solution, 1 mM magnesium chloride solution, 1 mM DL-dithiothreitol solution, 0.2 mg/mL bovine serum albumin solution, 0.05% NP-40 Assay buffer 1c (AB 1c) for compound dilution: 50 mM Tris, pH 7.4, 100 mM sodium chloride solution, 1 mM magnesium chloride solution, 1 mM DL-dithiothreitol solution, 0.2 mg/mL bovine serum albumin solution Assay buffer 2 (AB2) for Eu/APC: 50 mM Tris, pH 7.4, 100 mM sodium chloride solution, 1 mM magnesium chloride solution, 0.2 mg/mL bovine serum albumin solution
(§3) Transfer 3 μL/well of above solution (solution 1,2,3) to an empty assay plate (BD1536-well plate) as follows: TOTAL and cpd wells: Solution 1 (Biotin-IWR2): BLANK wells: Solution 2 (No Biotin-IWR2): POSITIVE CONTROL wells: Solution 3 (Biotin-IWR2XAV939) Transfer 3 μL/well of the above diluted compound solutions or compound dilution buffer to the above assay plate. Add 2 μL/well of 300 nM TNKS stock solution (4) to every well in the above assay plate. Centrifuge the assay plate at 2100 rpm for 2 min. Incubate the assay plate at 26° C. for 30 minutes. Add 2 μL/well 3.5 nMEu/50 nM APC solution (5) to every well in the above assay plate. Centrifuge the assay plate at 2100 rpm for 2 min. Incubate the assay plate at 26° C. for 60 min.

[2] = target: T2, tankyrase 2 (His6-TNKS2) (Homo sapiens, UniProt Q9H2K2); test: μHTS-TNKS-IWR2 TR-FRET Binding Assay (Example 71), TNKS2; conditions: footnote 1: Tankyrase 1 and 2 inhibition assay in Example 71 (TR-FRET)
T2 construct: His6-tankyrase 2 (construct: 934-1166) (His6-TNKS2)
T2 sequence (Q9H2K2 934-1166): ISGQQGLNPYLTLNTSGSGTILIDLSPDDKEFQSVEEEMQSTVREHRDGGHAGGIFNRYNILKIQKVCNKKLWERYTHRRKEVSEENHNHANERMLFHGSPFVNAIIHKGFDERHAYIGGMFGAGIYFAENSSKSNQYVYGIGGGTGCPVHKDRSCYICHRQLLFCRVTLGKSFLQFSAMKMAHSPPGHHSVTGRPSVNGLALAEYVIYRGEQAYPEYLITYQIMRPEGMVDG
Method: as §1
Biotin-4-((1S,2R,6S,7R)-3,5-Dioxo-4-aza-tricyclo[5.2.1.0*2,6*]dec-8-en-4-yl)-N-(4-methyl-quinolin-8-yl)-benzamide (Biotin-IWR2): 10 mM Biotin-IWR2 stock in DMSO, stored at −20° C. Positive control: 10 mM 2-(4-Trifluoromethyl-phenyl)-3,5,7,8-tetrahydro-thiopyrano[4,3-d]pyrimidin-4-one (XAV939) in DMSO, stored at −20° C.
as §2, §3

[3] = target: T3, PARP1 (His6-PARP1, full length) (Homo sapiens, UniProt P09874); test: TR-FRET Binding Assay (Example 71), PARP1; conditions: TR-FRET assay of Example 71 with His6-PARP1
T3 construct: His6-PARP1 (full length) can be substituted for His6-TNKS 1
T3 sequence (P09874 whole entry, species assumed): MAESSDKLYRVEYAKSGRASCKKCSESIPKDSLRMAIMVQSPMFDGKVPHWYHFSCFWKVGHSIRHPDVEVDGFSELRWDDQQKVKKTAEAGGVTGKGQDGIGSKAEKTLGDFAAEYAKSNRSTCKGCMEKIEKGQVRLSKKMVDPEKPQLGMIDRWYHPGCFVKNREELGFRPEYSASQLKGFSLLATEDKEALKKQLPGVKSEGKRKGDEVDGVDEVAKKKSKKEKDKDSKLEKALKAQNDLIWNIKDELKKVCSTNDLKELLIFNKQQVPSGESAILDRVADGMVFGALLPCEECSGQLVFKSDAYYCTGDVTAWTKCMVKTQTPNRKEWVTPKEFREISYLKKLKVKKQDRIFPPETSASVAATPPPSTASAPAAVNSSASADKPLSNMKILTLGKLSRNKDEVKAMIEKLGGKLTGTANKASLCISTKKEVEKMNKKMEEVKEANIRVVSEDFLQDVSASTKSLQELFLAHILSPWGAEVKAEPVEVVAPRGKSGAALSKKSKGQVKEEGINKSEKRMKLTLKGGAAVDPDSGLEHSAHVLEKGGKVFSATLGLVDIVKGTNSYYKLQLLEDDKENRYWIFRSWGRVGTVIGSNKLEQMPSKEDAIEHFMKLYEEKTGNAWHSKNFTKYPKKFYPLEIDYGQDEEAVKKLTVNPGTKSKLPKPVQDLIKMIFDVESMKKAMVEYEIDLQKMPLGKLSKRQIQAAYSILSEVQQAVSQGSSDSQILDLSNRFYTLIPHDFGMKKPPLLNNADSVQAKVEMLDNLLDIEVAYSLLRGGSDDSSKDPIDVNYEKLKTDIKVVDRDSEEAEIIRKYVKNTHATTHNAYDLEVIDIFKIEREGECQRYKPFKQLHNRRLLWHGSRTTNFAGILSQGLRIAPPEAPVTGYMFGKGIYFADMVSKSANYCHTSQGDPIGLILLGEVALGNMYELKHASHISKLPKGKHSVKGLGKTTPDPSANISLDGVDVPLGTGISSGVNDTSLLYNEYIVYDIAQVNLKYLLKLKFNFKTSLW
Method: as §1
Tankyrase 1 (TNKS1): 184.3 μM=5.2 mg/mL His6-TNKS1, MW=28.2 KDa (construct: 1088-1327, 1266M) in 20 mM Tris pH 8, 150 mM NaCl, 10% glycerol, and 0.5 mM TCEP. Alternatively, His6-tankyrase 2 (construct: 934-1166) (His6-TNKS2) or His6-PARP1 (full length) can be substituted for His6-TNKS 1.
as §2
Prepare Biotinylated IWR2 stock solution (3.33× stock) for TOTL and compound wells: 200 nM Biotin-IWR2 in 5% DMSO/AB1b buffer
Prepare BLANK well stock solution: 5% DMSO/AB1b buffer Prepare POSITIVE CONTROL well stock solution (3.33× stock): 200 nM XAV939 in 200 nM Biotin-IWR2/5% DMSO/AB1b buffer Prepare TNKS1 stock solution (5× stock): 300 nM TNKS in AB1a buffer. (Alternatively, use TNKS2 or PARP1 stock solutions.) Prepare Eu/APC stock solution (5× stock): 3.5 nM Eu-SA/50 nM APC-His6Ab in AB2 buffer.
Add 25 μL/well 1.5% DMSO/AB1c buffer in each compound well to the compound concentration at 74 μM in 8.8% DMSO/AB1c buffer or in the 2 μL DMSO CONTROL wells (BLANK, TOTAL and POSITIVE wells) in the compound plate. Transfer 3 μL/well of above solution (solution 1,2,3) to an empty assay plate (BD1536-well plate) as follows: TOTAL and cpd wells: Solution 1 (Biotin-IWR2): BLANK wells: Solution 2 (No Biotin-IWR2): POSITIVE CONTROL wells: Solution 3 (Biotin-IWR2XAV939) Transfer 3 μL/well of the above diluted compound solutions or compound dilution buffer to the above assay plate. Add 2 μL/well of 300 nM TNKS stock solution (4) to every well in the above assay plate. Centrifuge the assay plate at 2100 rpm for 2 min. Incubate the assay plate at 26° C. for 30 minutes. Add 2 μL/well 3.5 nMEu/50 nM APC solution (5) to every well in the above assay plate. Centrifuge the assay plate at 2100 rpm for 2 min. Incubate the assay plate at 26° C. for 60 min. Read the assay plate immediately at excitation wavelength of 330 nm and emission wavelength of […] in time resolved fluorescence mode.
. Representative compound data for the PARP1 assay is in TABLE 2 (below) Values are in μM.

T1 sequence (O95271 1088-1327): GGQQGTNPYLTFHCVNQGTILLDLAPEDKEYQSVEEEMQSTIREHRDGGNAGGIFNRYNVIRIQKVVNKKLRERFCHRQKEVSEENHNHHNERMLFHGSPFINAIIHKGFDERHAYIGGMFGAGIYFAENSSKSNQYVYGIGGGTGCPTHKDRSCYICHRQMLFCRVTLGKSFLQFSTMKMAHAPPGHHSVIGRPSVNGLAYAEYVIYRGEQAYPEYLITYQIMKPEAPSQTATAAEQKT

Structure (SMILES) | pIC50 [1] | pIC50 [2] | pIC50 [3]
CC(C)C1Cc2[nH]c(=O)c3ccc(C4CC4)cc3c2CO1 (racemic) [Compound I-38, rac-6-Cyclopropyl-2-isopropyl-1,2,4,10-tetrahydro-3-oxa-10-aza-phenanthren-9-one] | 7.04 | 6.71 | 4.73
CC(C)(O)c1ccc2c(=O)[nH]c3c(c2c1)COC(C(C)(C)C)C3 (racemic) [Compound I-53, rac-2-tert-Butyl-6-(1-hydroxy-1-methyl-ethyl)-1,2,4,10-tetrahydro-3-oxa-10-aza-phenanthren-9-one] | 5.96 | 4.86 | < 4.30
CC(C)C1Cc2[nH]c(=O)c3cccnc3c2CO1 (racemic) [Compound I-4, rac-2-Isopropyl-1,2,4,10-tetrahydro-3-oxa-5,10-diaza-phenanthren-9-one] |  |  | 6.46
CC(C)C1Cc2[nH]c(=O)c3ccc(C(N)=O)cc3c2CO1 (racemic) [Compound I-23, rac-2-Isopropyl-9-oxo-1,4,9,10-tetrahydro-2H-3-oxa-10-aza-phenanthrene-6-carboxylic acid amide] | 7.05 | 6.61 | 5.69
CC(C)(COCc1ccccc1)C1Cc2[nH]c(=O)c3ccccc3c2CO1 (racemic) [Compound I-29, rac-2-(2-Benzyloxy-1,1-dimethyl-ethyl)-1,2,4,10-tetrahydro-3-oxa-10-aza-phenanthren-9-one] | 7.17 | 6.95 | 6.90
CC(C)C1Cc2[nH]c(=O)c3ccc(Cl)cc3c2CO1 (racemic) [Compound I-27, rac-6-Chloro-2-isopropyl-1,2,4,10-tetrahydro-3-oxa-10-aza-phenanthren-9-one] | 7.41 | 7.27 | 6.71
Cn1ncc2c(=O)[nH]c3c(c21)COC(C(C)(C)C)C3 (racemic) [Compound I-42, rac-7-tert-Butyl-1-methyl-5,6,7,9-tetrahydro-1H-8-oxa-1,2,5-triaza-cyclopenta[a]naphthalen-4-one] | 7.22 | 7.06 | 5.68
O=c1[nH]c2c(c3ccccc13)COC(C1CCOC1)C2 (mixture of isomers) [Compound I-59, 2-(Tetrahydro-furan-3-yl)-1,2,4,10-tetrahydro-3-oxa-10-aza-phenanthren-9-one] | 7.47 | 7.46 | 6.55
CC(C)(C)C1Cc2[nH]c(=O)c3cnccc3c2CO1 (racemic) [Compound I-43, rac-7-tert-Butyl-5,7,8,9-tetrahydro-6-oxa-2,9-diaza-phenanthren-10-one] | 7.36 | 7.31 | 6.06
CC(C)(C)C1Cc2[nH]c(=O)c3ccccc3c2CO1 (racemic) [Compound I-8, rac-2-tert-Butyl-1,2,4,10-tetrahydro-3-oxa-10-aza-phenanthren-9-one] |  |  | 6.75
Cc1cccc2c(=O)[nH]c3c(c12)COC(C(C)C)C3 (racemic) [Compound I-17, rac-2-Isopropyl-5-methyl-1,2,4,10-tetrahydro-3-oxa-10-aza-phenanthren-9-one] |  |  | 6.97

The next molecules have a higher pIC50 [3] than those just listed; values first:

pIC50 [1] | pIC50 [2] | pIC50 [3] | Structure (SMILES)
7.19 | 7.06 | 7.11 | CC1(C(=O)N2CCC(C3Cc4[nH]c(=O)c5ccccc5c4CO3)C2)CC1 (stereo not drawn) [Compound I-45, 2-[1-(1-Methyl-cyclopropanecarbonyl)-pyrrolidin-3-yl]-1,2,4,10-tetrahydro-3-oxa-10-aza-phenanthren-9-one]
 |  | 7.46 | CC(C)C1Cc2[nH]c(=O)c3ccccc3c2CO1 (racemic) [Compound I-2, rac-2-Isopropyl-1,2,4,10-tetrahydro-3-oxa-10-aza-phenanthren-9-one]
7.42 | 7.25 | 7.16 | CC(C)(C)OC(=O)N1CCC(C2Cc3[nH]c(=O)c4ccccc4c3CO2)C1 (stereo not drawn) [Compound I-35, 3-(9-Oxo-1,4,9,10-tetrahydro-2H-3-oxa-10-aza-phenanthren-2-yl)-pyrrolidine-1-carboxylic acid tert-butyl ester]
6.39 | 5.57 | 7.45 | CC(C)C1Cc2[nH]c(=O)c3ccc([N+](=O)[O-])cc3c2CO1 (racemic) [Compound I-16, rac-2-Isopropyl-6-nitro-1,2,4,10-tetrahydro-3-oxa-10-aza-phenanthren-9-one]
7.55 | 7.54 | 7.59 | Cc1cccc2c(=O)[nH]c3c(c12)COC(C(C)(C)COCc1ccccc1)C3 (stereo not drawn) [Compound I-68, 3-(2-benzyloxy-1 1-dimethyl-ethyl)-10-methyl-1 3 4 5-tetrahydropyrano[4 3-c]isoquinolin-6-one]
7.40 | 7.34 | 7.41 | CC1(C(=O)N2CCC(C3Cc4[nH]c(=O)c5cccnc5c4CO3)CC2)CC1 (racemic) [Compound I-57, rac-2-[1-(1-methyl-cyclopropanecarbonyl)-piperidin-4-yl]-1,2,4,10-tetrahydro-3-oxa-5,10-diaza-phenanthren-9-one]
7.08 | 6.41 | 7.13 | COC(=O)c1ccc2c(=O)[nH]c3c(c2c1)COC(C(C)C)C3 (racemic) [Compound I-19, rac-2-Isopropyl-9-oxo-1,4,9,10-tetrahydro-2H-3-oxa-10-aza-phenanthrene-6-carboxylic acid methyl ester]
 |  | 7.05 | Cc1cccc2c(=O)[nH]c3c(c12)CO[C@H](C(C)(C)CO)C3 (single isomer, unassigned) [Compound I-66]
 |  | 7.48 | O=C(C1COC1)N1CCC(C2Cc3[nH]c(=O)c4ccccc4c3CO2)CC1 (racemic) [Compound I-52, rac-2-[1-(Oxetane-3-carbonyl)-piperidin-4-yl]-1,2,4,10-tetrahydro-3-oxa-10-aza-phenanthren-9-one]
 |  | 7.27 | CC(C)(CO)C1Cc2[nH]c(=O)c3ccccc3c2CO1 (racemic) [Compound I-30, rac-2-(2-Hydroxy-1,1-dimethyl-ethyl)-1,2,4,10-tetrahydro-3-oxa-10-aza-phenanthren-9-one]
 |  | 7.44 | CS(=O)(=O)N1CCC(C2Cc3[nH]c(=O)c4ccccc4c3CO2)C1 (stereo not drawn) [Compound I-39, 2-(1-Methanesulfonyl-pyrrolidin-3-yl)-1,2,4,10-tetrahydro-3-oxa-10-aza-phenanthren-9-one]
 |  | 7.15 | Cc1cccc2c(=O)[nH]c3c(c12)CO[C@@H](C(C)(C)CO)C3 (single isomer, unassigned) [Compound I-67]

Source: patent publication US20140121231A1, “PYRANOPYRIDONE INHIBITORS OF TANKYRASE” (Hoffmann-La Roche, Inc., priority 2012, published 2014)
